Test results: patent US20070218475A1, “Efficient drug screening for protein targets” (priority 2005, published 2007)

What was measured:
SmoΔCRD = biological target: T1, SmoΔCRD (Mus musculus, UniProt P56726, DEL68-182); test: Fluorescence (BODIPY-cyclopamine) binding assay, Cos-1 cells expressing SmoΔCRD; details: Cos-1 cells, flow cytometry
T1 construct: expressed in transfected cells; host or cells: Cos-1
Text: Preparation of Smo fusion proteins and deletion mutants: Both Smo-Myc3 and SmoA1-Myc3 are C-terminally fused to three consecutive Myc epitopes. […] Smo-GFP is comprised of green fluorescent protein fused to the C-terminus of Smo, and the fluorescent proteins in SmoA1-YFP, and SmoA1-GFP are similarly fused to the C-terminus of SmoA1. All constructs were generated by PCR and verified by DNA sequencing.
For flow cytometry experiments, the cells were then trypsinized, collected by centrifugation, resuspended in phenol red-free DMEM containing 0.5% bovine calf serum, and analyzed for green fluorescence (FACScan, Beckton Dickinson). […] Curve fitting analysis was performed with Kaleidograph (Synergy Software).

[1] = biological target: T2, Smo protein from Drosophila (Drosophila melanogaster, UniProt P91682); test: Fluorescence (BODIPY-cyclopamine) binding assay, Cos-1 cells expressing Drosophila Smo; details: flow cytometry
T2 construct: expressed in transfected cells; host or cells: Cos-1
T2 sequence (P91682 32-1036): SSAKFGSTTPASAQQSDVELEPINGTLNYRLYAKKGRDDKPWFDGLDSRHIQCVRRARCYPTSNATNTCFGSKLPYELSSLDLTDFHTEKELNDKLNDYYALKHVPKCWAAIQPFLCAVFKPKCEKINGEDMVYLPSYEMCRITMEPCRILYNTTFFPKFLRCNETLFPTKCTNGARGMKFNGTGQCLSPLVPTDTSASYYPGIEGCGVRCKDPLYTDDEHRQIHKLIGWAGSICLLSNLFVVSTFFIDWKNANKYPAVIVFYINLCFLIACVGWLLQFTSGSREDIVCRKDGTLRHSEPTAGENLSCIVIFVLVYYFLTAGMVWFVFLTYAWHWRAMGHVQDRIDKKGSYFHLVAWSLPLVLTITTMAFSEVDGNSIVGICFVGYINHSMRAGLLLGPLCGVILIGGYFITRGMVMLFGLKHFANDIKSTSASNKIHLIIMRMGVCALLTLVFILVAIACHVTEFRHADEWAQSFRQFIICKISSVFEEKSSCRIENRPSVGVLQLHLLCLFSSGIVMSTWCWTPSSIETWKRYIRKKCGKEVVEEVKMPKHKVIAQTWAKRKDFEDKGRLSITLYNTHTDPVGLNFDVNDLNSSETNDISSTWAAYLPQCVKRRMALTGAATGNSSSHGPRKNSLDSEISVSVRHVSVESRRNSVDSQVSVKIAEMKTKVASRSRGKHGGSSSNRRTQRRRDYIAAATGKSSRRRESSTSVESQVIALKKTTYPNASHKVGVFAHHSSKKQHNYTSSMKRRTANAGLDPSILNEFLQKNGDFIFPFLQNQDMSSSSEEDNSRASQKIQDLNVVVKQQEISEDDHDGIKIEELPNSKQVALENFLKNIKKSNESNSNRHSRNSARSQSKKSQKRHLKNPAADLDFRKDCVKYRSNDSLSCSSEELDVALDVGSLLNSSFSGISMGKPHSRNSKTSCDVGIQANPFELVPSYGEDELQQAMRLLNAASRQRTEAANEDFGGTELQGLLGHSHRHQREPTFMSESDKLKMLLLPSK
Experimental: Fluorescence binding assay: Cos-1 cells were transfected in 6-well plates with the described expression vectors (1 μg/well), and after two days, incubated in DMEM containing 10% fetal bovine serum, 5 nM BODIPY-cyclopamine, and various concentrations of the indicated competitors for 4-6 h at 37° C. For flow cytometry experiments, the cells were then trypsinized, collected by centrifugation, resuspended in phenol red-free DMEM containing 0.5% bovine calf serum, and analyzed for green fluorescence (FACScan, Beckton Dickinson). A fluorescence intensity range that excludes non-transfected cells was then selected for quantification of specific BODIPY-cyclopamine binding (see brackets in FIGS. 2C, 2D, and 3A). Curve fitting analysis was performed with Kaleidograph (Synergy Software).

T1 sequence (P56726 with tags, fused parts or gaps DEL68-182): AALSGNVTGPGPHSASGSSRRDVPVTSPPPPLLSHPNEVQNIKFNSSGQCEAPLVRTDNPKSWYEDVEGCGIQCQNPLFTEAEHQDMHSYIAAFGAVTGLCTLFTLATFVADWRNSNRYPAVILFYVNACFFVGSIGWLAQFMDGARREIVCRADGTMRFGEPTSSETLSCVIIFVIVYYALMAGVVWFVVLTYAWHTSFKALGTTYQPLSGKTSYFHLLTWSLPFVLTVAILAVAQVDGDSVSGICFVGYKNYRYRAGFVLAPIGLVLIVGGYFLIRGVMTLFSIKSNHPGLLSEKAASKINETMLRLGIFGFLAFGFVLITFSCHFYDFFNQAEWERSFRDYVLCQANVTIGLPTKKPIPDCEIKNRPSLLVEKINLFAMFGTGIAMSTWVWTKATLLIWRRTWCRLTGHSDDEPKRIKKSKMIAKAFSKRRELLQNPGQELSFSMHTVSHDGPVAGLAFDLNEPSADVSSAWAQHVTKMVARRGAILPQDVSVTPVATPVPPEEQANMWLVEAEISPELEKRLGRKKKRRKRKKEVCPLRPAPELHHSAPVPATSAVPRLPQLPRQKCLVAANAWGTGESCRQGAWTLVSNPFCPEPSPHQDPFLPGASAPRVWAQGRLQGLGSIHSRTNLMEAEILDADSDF

## CC1=C2CC3C(CC=C4C[C@@H](O)CCC43C)C2CCC12O[C@@H]1CC(C)CN(CCNC(=O)CCCCCNC(=O)CCC3=[N+]4C(=Cc5c(C)cc(C)n5[B-]4(F)F)C=C3)C1C2C (some centres unmarked) [BODIPY-cyclopamine]
SmoΔCRD
  binding to cells expressing SmoΔCRD: can bind
[1]
  binding to cells expressing Drosophila Smo: did not bind
